Experimental data published in patent US20210387968A1, “HETEROARYLMETHYLENE DERIVATIVES AS DNA POLYMERASE THETA INHIBITORS” (IDEAYA Biosciences, Inc., priority 2019, published 2021).

Molecular target: T1, Pol theta polymerase domain (residues 1819-2590) (Homo sapiens, UniProt O75417)
T1 construct: Pol theta polymerase domain (residues 1819-2590) at a final concentration of 4 nM
T1 sequence (O75417 1819-2590): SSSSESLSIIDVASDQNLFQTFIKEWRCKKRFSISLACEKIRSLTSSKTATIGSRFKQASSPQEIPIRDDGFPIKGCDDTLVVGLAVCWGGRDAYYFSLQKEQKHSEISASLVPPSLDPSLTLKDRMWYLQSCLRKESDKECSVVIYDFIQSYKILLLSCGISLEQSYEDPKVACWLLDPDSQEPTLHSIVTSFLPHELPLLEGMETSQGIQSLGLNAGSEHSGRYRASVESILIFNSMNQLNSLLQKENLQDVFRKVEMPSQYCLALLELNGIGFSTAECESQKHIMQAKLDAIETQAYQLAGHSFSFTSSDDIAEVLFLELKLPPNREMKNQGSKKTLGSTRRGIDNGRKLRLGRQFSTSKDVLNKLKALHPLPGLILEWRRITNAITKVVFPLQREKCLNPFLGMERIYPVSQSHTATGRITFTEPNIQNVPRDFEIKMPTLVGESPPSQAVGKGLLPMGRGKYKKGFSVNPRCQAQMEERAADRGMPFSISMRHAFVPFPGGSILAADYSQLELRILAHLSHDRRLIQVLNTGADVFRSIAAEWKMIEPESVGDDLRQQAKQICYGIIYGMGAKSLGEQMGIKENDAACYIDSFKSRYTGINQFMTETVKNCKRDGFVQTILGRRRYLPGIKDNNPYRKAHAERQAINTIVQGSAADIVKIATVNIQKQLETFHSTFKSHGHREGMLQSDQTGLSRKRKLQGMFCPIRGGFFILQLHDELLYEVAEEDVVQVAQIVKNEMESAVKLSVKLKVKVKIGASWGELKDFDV
Assay: Pol theta polymerase primer extension assay (molecular beacon fluorescence)
Assay type: biochemical
Details: 4 nM enzyme, 15 min pre-incubation, fluorescence change over 30 min
Method: The ability of the compounds of Formula (I) to inhibit polymerase activity of Pol theta was determined using the assay described below.
A mixture of 20 uL of Pol theta polymerase domain (residues 1819-2590) at a final concentration of 4 nM in assay buffer (20 m M TRIS, pH 7.80, 50 mM KCl, 10 mM MgCl2, 1 mM DTT, 0.01% BSA, 0.01% Tween20) was added to test compounds (11-point dilution series of test compounds) except the low control wells without test compounds. The above enzyme and test compound inhibitor mixture was then incubated at room temperature for 15 min. An equal volume (20 μl) of dNTP substrate mix (48 μM) and primed molecular beacon DNA (obtained by annealing template SEQ ID NO 2: (5′-CCTTCCTCCCGTGTCTTG-TACCTTCCCGTCA-GGAGGAAGG-3′) with 5′-TAMRA and 3′-BHQ and primer DNA (SEQ ID NO 3: 5′-GACGGGAAGG-3′) in 10 mM Tris-HCl pH 8.0, 100 mM NaCl buffer) (96 nM) in assay buffer was added to all the test wells. The inhibition activity was measured by monitoring the fluorescence change over 30 min at 535 nm upon excitation at 485 nm. The high control (DMSO with enzyme) with high fluorescence intensity represents no inhibition of polymerase reaction while the low control (DMSO with buffer) with low fluorescence intensity represents full inhibition of polymerase activity. Slope of the reaction progress curves were used to calculate the rate of polymerization. The rates were used to determine the percent inhibition using a four-parameter inhibition model to generate IC50, Hill slope and max inhibition.

Compound | IC50 [nM]
2-([[1-(4-fluorophenyl)-4- (trifluoromethyl)imidazol-2- yl]methyl]amino)-4,6- bis(trifluoromethyl)benzonitrile [compound 9] | < 200
Cc1nc(OCc2nccn2-c2ccccc2)c(C#N)c(C)c1Cl [compound 1, 5-chloro-4,6-dimethyl-2-((1-phenyl-1H-imidazol-2-yl)methoxy)-nicotinonitrile] | 500 to 1000
Cc1nc(NCc2nccn2-c2ccccc2)c(C#N)c(C)c1Cl [compound 2, 5-chloro-4,6-dimethyl-2-((1-phenyl-1H-imidazol-2-yl)methylamino)-nicotinonitrile] | < 200
Cc1nc(NCc2nccn2-c2ccc(F)cc2)c(C#N)c(C)c1Cl [compound 3, 5-chloro-2-(((1-(4-fluorophenyl)-1H-imidazol-2-yl)methyl)amino)-4,6-dimethyl-nicotinonitrile] | < 200
Fc1ccc(-n2ccnc2CNc2cc(Cl)cc(C(F)(F)F)c2)cc1 [compound 4, 3-chloro-N-((1-(4-fluorophenyl)-1H-imidazol-2-yl)methyl)-5-(trifluoromethyl)-benzenamine] | < 200
N#Cc1c(C(F)(F)F)cc(C(F)(F)F)nc1NCc1nccn1-c1ccc(F)cc1 [compound 5, 2-([[1-(4-fluorophenyl)-1H-imidazol-2-yl]methyl]amino)-4,6-bis(trifluoromethyl)-pyridine-3-carbonitrile] | < 200
COc1ccc(-n2ccnc2CNc2nc(C(F)(F)F)cc(C(F)(F)F)c2C#N)cc1 [compound 6, 2-([[1-(4-methoxyphenyl)-1H-imidazol-2-yl]methyl]amino)-4,6-bis(trifluoromethyl)-pyridine-3-carbonitrile] | < 200
N#Cc1c(C(F)(F)F)cc(C(F)(F)F)nc1NCc1nccn1Cc1ccc(F)cc1 [compound 7, 2-[([1-[(4-fluorophenyl)methyl]-1H-imidazol-2-yl]methyl)amino]-4,6-bis-(trifluoromethyl)pyridine-3-carbonitrile] | < 200
N#Cc1c(C(F)(F)F)cc(C(F)(F)F)nc1OCc1nccn1-c1ccc(F)cc1 [compound 8, 2-[[1-(4-fluorophenyl)-1H-imidazol-2-yl]methoxy]-4,6-bis(trifluoromethyl)-pyridine-3-carbonitrile] | < 200
N#Cc1c(C(F)(F)F)cc(C(F)(F)F)nc1NCc1nccnc1-c1ccc(F)cc1 [compound 10, 2-((3-(4-fluorophenyl)pyrazin-2-yl)methylamino)-4,6-bis(trifluoromethyl)-nicotinonitrile] | < 200
N#Cc1c(C(F)(F)F)cc(C(F)(F)F)nc1NCc1ncncc1-c1ccc(F)cc1 [compound 11, 2-((5-(4-fluorophenyl)pyrimidin-4-yl)methylamino)-4,6-bis(trifluoromethyl)-nicotinonitrile] | < 200
N#Cc1c(C(F)(F)F)cc(C(F)(F)F)nc1NCc1nncn1-c1ccc(F)cc1 [compound 12, 2-((4-(4-fluorophenyl)-4H-1,2,4-triazol-3-yl)methylamino)-4,6-bis(trifluoromethyl)-nicotinonitrile] | < 200
CC(Nc1nc(C(F)(F)F)cc(C(F)(F)F)c1C#N)c1nccn1-c1ccc(F)cc1 (stereo not drawn) [compound 13, 2-([1-[1-(4-fluorophenyl)imidazol-2-yl]ethyl]amino)-4,6-bis(trifluoromethyl)pyridine-3-carbonitrile] | < 200
Cn1cc(-c2ccc(F)cc2)c(CNc2nc(C(F)(F)F)cc(C(F)(F)F)c2C#N)n1 [compound 14, 2-(((4-(4-fluorophenyl)-1-methyl-1H-pyrazol-3-yl)methyl)amino)-4,6-bis(trifluoromethyl)nicotinonitrile] | 1000 to 10000
N#Cc1c(C(F)(F)F)cc(C(F)(F)F)nc1NCc1n[nH]cc1-c1ccc(F)cc1 [compound 15, 2-(((4-(4-fluorophenyl)-1H-pyrazol-3-yl)methyl)amino)-4,6-bis(trifluoromethyl)-nicotinonitrile] | 1000 to 10000
N#Cc1c(C(F)(F)F)cc(C(F)(F)F)nc1NCc1ncccc1-c1ccc(F)cc1 [compound 16, 2-(((3-(4-fluorophenyl)pyridin-2-yl)methyl)amino)-4,6-bis(trifluoromethyl)-nicotinonitrile] | < 200
N#Cc1c(C(F)(F)F)cc(C(F)(F)F)nc1NCc1nccnc1-c1ccc(F)cc1Cl [compound 17, 2-([[3-(2-chloro-4-fluorophenyl)-pyrazin-2-yl]methyl]amino)-4,6-bis(trifluoromethyl)pyridine-3-carbonitrile] | 500 to 1000
N#Cc1c(C(F)(F)F)cc(C(F)(F)F)nc1NCc1ncncc1-c1ccncc1 [compound 18, 2-([[5-(pyridin-4-yl)pyrimidin-4-yl]methyl]amino)-4,6-bis(trifluoro-methyl)pyridine-3-carbonitrile] | 1000 to 10000
N#Cc1c(C(F)(F)F)cc(C(F)(F)F)nc1OCc1ncccc1-c1ccc(F)cc1 [compound 19, 2-[[3-(4-fluorophenyl)pyridin-2-yl]methoxy]-4,6-bis(trifluoromethyl)pyridine-3-carbonitrile] | < 200
Cc1ccc(-c2ccc(F)cc2)c(CNc2nc(C(F)(F)F)cc(C(F)(F)F)c2C#N)n1 [compound 20, 2-([[3-(4-fluorophenyl)-6-methylpyridin-2-yl]methyl]amino)-4,6-bis(trifluoromethyl)pyridine-3-carbonitrile] | < 200
N#Cc1c(C(F)(F)F)cc(C(F)(F)F)nc1NCc1nccnc1-c1ccccn1 [compound 21, 2-(((3-(pyridin-2-yl)pyrazin-2-yl)methyl)amino)-4,6-bis(trifluoromethyl)-nicotinonitrile] | 200 to 500
N#Cc1c(C(F)(F)F)cc(C(F)(F)F)nc1NCc1ncccc1-c1ccccn1 [compound 22] | < 200
N#Cc1c(C(F)(F)F)cc(C(F)(F)F)nc1NCc1nc(O)ccc1-c1ccc(F)cc1 [compound 23, 2-([[3-(4-fluorophenyl)-6-oxo-1H-pyridin-2-yl]methyl]amino)-4,6-bis(trifluoro-methyl)pyridine-3-carbonitrile] | < 200
N#Cc1ccc(-c2ccc(F)cc2)c(CNc2nc(C(F)(F)F)cc(C(F)(F)F)c2C#N)n1 [compound 24, 6-([[3-cyano-4,6-bis(trifluoromethyl)pyridin-2-yl]amino]methyl)-5-(4-fluorophenyl)pyridine-2-carbonitrile] | < 200
N#Cc1c(C(F)(F)F)cc(C(F)(F)F)nc1NCc1ncccc1-c1ccc(Br)cc1 [compound 25, 2-([[3-(4-bromophenyl)pyridin-2-yl]methyl]amino)-4,6-bis(trifluoromethyl)-pyridine-3-carbonitrile] | < 200
N#Cc1c(C(F)(F)F)cc(C(F)(F)F)nc1NCc1ncnn1-c1ccc(F)cc1 [compound 26, 2-(((1-(4-fluorophenyl)-1H-1,2,4-triazol-5-yl)methyl)amino)-4,6-bis(trifluoro-methyl)nicotinonitrile] | 200 to 500
COc1ccc(-c2ccc(F)cc2)c(CNc2nc(C(F)(F)F)cc(C(F)(F)F)c2C#N)n1 [compound 27, 2-([[3-(4-fluorophenyl)-6-methoxypyridin-2-yl]methyl]amino)-4,6-bis(trifluoromethyl)pyridine-3-carbonitrile] | 1000 to 10000
